For one data set, the target named is T1, mouse GS-FDH (Mus musculus, UniProt P28474).
T1 construct: GSNO-metabolizing activity of RAW 264.7 cells was recovered in a single function following anion exchange on a MonoQ column; endogenous in cells; host or cells: RAW 264.7 mouse macrophages (ATCC); purified by ammonium sulfate precipitation, MonoQ and 5' AMP Sepharose 4B
The data set can be described thus: Kinetic analysis of purified GSNO reductase (GS-FDH) from RAW 264.7 cells. The data set is classed as biochemical. The following applies: purified protein.

Another data set relates to restenosis. The data set can be described thus: Example X: restenosis post-angioplasty, drug-coated stent. In kind it is in vivo, human. The following applies: Nir stent coated with drug, 30% per polymer. From the text: The patient was discharged the following day, and did well.
For a further data set, the system named is impotence. The data set can be described thus: Example XIII: diabetic patient with impotence. In kind it is in vivo, human. From the text: A diabetic with a history of impotence presents to their urologist. […] Their physician adds topical mycophenolic acid (5% paste) with good results.
The subject of the next data set is tumors. The following applies: previous use; cited from earlier work.
A further data set has as its system malignant hypertension. The data set can be described thus: Example XXVIII: heart failure and malignant hypertension. In kind it is in vivo, human. The text has this: A person presents with heart failure and malignant hypertension.
Another data set has as its system intractable angina. The experiment in a line: Example VIII: patient with intractable angina. The following applies: 6 grams injected at 20 milligrams per milliliter, daily for seven days; by six weeks. The data set is classed as in vivo, human. As to the method:
A person with intractable angina is administered ribavirn as 6 grams diluted to a final volume of 300 cc in sterile water and injected at a final concentration of 20 milligrams per milliliter, given daily for seven days.

The subject of another data set is pulmonary embolism. The experiment in a line: Example IX: patient with pulmonary embolism. In kind it is in vivo, human. The following applies: inhaled, 6 grams in 300 cc, aerosol, 12 hours/day for three days.
The next data set has as its system chronic psoriasis. The experiment in a line: Example XI: patient with chronic psoriasis. In kind it is in vivo, human. As to conditions: topical paste, 5% with acetylsalicylic acid 2%, 8 hours a day, two weeks. As to the method:
A person with chronic psoriasis presents at the dermatologist. A paste comprised of acetylsalicylic acid, 2%, combined with 5% ribavirin was applied topically for 8 hours a day.

The next data set concerns ringworm. The data set can be described thus: Example XVI: ringworm. As to conditions: topical ointment 5%, daily for a week. The data set is classed as in vivo, human.
Data set [1] has as its system Cells from an injured mouse liver. The experiment in a line: Survival of cells from cytokine-injured mouse liver treated with NO synthase inhibitor. In kind it is cell-based. As to conditions: 1 millimolar. As for the experimental part:
(§1) Hepatocytes of wild-type mice and their GS-FDH^−/− littermates were harvested after perfusion of the livers with Liberase (Roche), and purified by repeated differential sedimentation at 50×g, followed by centrifugation over a 30% Percoll solution. […] The cells were then cultured in the presence of recombinant mouse tumor necrosis factor-α (500 units/ml), interferon-gamma (100 units/ml), interleuken-1β (200 units/ml) and lipopolysaccharide (LPS, 10 μg/ml; E. coli 0128:B12; Sigma) for 14 and 40 hours. Nitrosylation levels in hepatocytes were measured as described in Eu, J., et al., Biochemistry 39, 1040-1047 (2000). […] See Liu, L. and Stamler, J. S., Cell Death and Differentiation 6, 937-942 (1999).

Data set [2] deals with injured mouse liver cells deficient in GS-FDH. The experiment in a line: Survival of GS-FDH-deficient cells from cytokine-injured mouse liver treated with NO synthase inhibitor. The data set is classed as cell-based. The following applies: same cells but deficient in GS-FDH; 1 millimolar. As for the experimental part:
as §1

In a further data set the test system is cystic fibrosis. The experiment in a line: Example II: patient with cystic fibrosis. The data set is classed as in vivo, human. The following applies: inhaled S-nitrosoglutathione (10 mM in 3 cc) in combination with D-glutathione (3 mM in 10 cc); over the following day. The text has this:
A person with cystic fibrosis presents to the Emergency Room with difficulty breathing and a fever.

For the next data set, the system named is ARDS. As to conditions: inhaled 10 mM in 3 cc normal saline; from 60 mm Hg on 100% oxygen; over 1 hour. From the text: A person develops ARDS as a complication of urosepsis. They are intubated and transferred to the Intensive Care Unit.
The next data set relates to unstable angina. The following applies: intravenous infusion 100 mg per kg Q6 hours; on betablockers and nitrates. The text has this: A person status post CABG×2 presents with unstable angina.
The next data set concerns blood pressure. As to conditions: 600 milligrams BID; three weeks later; 160/90 before. From the text:
A person presents to their primary care physician.

A further data set has as its system liver function. As to conditions: infusion 200 milligrams per kilogram every 6 hours; over the following week. The text has this: A child presents to the Emergency Room having ingested a toxic dose of Tylenol. […] This is an example of treating a patient for a disease where there is risk of apoptosis occurring.
The subject of a further data set is Hodgkins disease. As to conditions: 1 gram three times a day for a month. From the text: A person has a biopsy done on an axillary node which establishes the diagnosis of Hodgkins disease.
Data set [3] concerns 90% lesion of the left anterior descending coronary artery. As to conditions: 600 mg P.O. three times a day for a month. From the text: A person has a stent placed for 90% lesion of the left anterior descending coronary artery.
A further data set concerns severe heart failure. The following applies: infusion 1 gram TED for 10 days. From the text: A person with acute viral myocarditis develops severe heart failure. […] They are placed on the transplant list.
The next data set has as its system angina. The experiment in a line: Example XXVII: angina treated with nitroglycerine and GS-FDH inhibitor. In kind it is in vivo, human. As to conditions: 600 mg TIE, concomitantly with nitroglycerine.
The next data set deals with wheezing. The following applies: intravenous infusion 50 mg/kg Q.6 hours; person.
The subject of another data set is atherosclerosis. As to conditions: 600 mg TID for a week.
For data set [4], the system named is swollen abdomen and elevated LSTs. As to conditions: infusion 200 milligrams per kilogram every 6 hours for two weeks.
The subject of another data set is viral pneumonia. The following applies: inhaled, 3 mM/3 cc normal saline four times a day.
The test system of a further data set is pinworm. The following applies: 1 gram daily for three days.
The test system of the next data set is squamous cell cancer. As to conditions: intravenously 200 milligrams per kilogram four times a day; stage 3B before.
The test system of data set [5] is benign prostatic hypertrophy. The following applies: 600 mg three times a day; over three months.
Data set [6] is described as follows: GSNO decomposition in reaction buffer, no lysate (Saville assay). The data set is classed as biochemical. The following applies: 200 μM GSNO, 37° C., 5 minutes. As to the method:
After precipitation of the reaction mixtures with trichloroacetic acid (8.3% final concentration), the supernatants were diluted threefold in the buffer and nitrosothiol levels in the reaction mixture were measured by the Saville assay as described in Stamler, J. S., Science 276, 2034 (1997). Data are the mean of two independent experiments.

Another data set has as its system human HeLa cells. The data set can be described thus: GSNO metabolizing activity of HeLa cell lysate (Saville assay). In kind it is biochemical. As to conditions: HeLa lysate 4 μg/ml, 200 μM GSNO, 37° C., 5 minutes. As for the experimental part:
(§2) The cells were from cell lines obtained from the ATCC. Cells were homogenized by sonication in a solution containing 20 mM Tris-HCl (pH 8.0), 0.5 mM EDTA, 0.1% NP-40 and 1 mM phenylmethylsulfonyl fluoride (PMSF). […] After precipitation of the reaction mixtures with trichloroacetic acid (8.3% final concentration), the supernatants were diluted threefold in the buffer and nitrosothiol levels in the reaction mixture were measured by the Saville assay as described in Stamler, J. S., Science 276, 2034 (1997). Data are the mean of two independent experiments.

For data set [7], the system named is human epithelial A549 cells. The data set can be described thus: GSNO metabolizing activity of A549 cell lysate (Saville assay). In kind it is biochemical. The following applies: A549 lysate 4 μg/ml, 200 μM GSNO, 37° C., 5 minutes. As to the method:
as §2

In data set [8] the test system is human monocyte THP-1 cells. The experiment in a line: GSNO metabolizing activity of THP-1 cell lysate (Saville assay). In kind it is biochemical. As to conditions: THP-1 lysate 4 μg/ml, 200 μM GSNO, 37° C., 5 minutes. As to the method:
as §2

Another data set relates to sfa1 mutant cells. The data set can be described thus: Growth of GS-FDH-deficient yeast under nitrosative or oxidative stress. The data set is classed as cell-based. The text has this: Genet. 237, 351 (1993) (SFA1/YDL168w) was replaced with dominant selectable cassettes Kan 2 (resistant to G418) or hphMX (resistant to hydromycin) by direct targeting as described in Wach, A., et al., Yeast 10, 1793 (1994). KanMX2 is described in Wach, A. et al., Yeast 10, 1793 (1994). hphMX is described in Goldstein and MeCuskler, Yeast 15, 1541 (1991).

Another data set relates to wild-type Y190 cells. The data set can be described thus: Growth of wild-type yeast treated with GSNO. The following applies: same concentrations as for the mutants. The data set is classed as cell-based.

T1 sequence (P28474 whole entry): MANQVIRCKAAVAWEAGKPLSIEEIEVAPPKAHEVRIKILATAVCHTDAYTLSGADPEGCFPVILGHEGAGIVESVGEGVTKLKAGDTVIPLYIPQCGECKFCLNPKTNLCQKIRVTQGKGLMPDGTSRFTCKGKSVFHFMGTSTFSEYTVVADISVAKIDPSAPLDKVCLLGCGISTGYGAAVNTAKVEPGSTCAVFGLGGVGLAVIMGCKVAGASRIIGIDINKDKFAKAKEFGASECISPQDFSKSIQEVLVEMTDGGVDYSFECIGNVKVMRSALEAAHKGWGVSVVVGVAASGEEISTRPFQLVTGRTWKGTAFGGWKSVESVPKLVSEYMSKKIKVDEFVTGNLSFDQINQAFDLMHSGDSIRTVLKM
Description for mouse GS-FDH: Cells were homogenized by sonication in a solution containing 20 mM Tris-HCl (pH 8.0), 0.5 mM EDTA, 0.1% NP-40 and 1 mM phenylmethylsulfonyl (PMSF).
Further purification over a 5′ AMP Sepharose column yielded a single band of about 43 kDa in a silver-stained SDS-PAGE gel. […] After dialysis against 20 mM Tris-HCl (pH 8.0), the proteins were fractionated on a MonoQ column with increasing concentrations of NaCl. […] SDS-PAGE and Coomassie blue staining gave the single band of about 43 kDa.
The purified protein was digested by trypsin and the resulting peptides were analyzed by mass spectrometry. Peptide mass database search with GPMAW program identified the protein as mouse GS-FDH(SP-P28474) with high scores, matching 8 fragments (42% coverage) to mouse GS-FDH.
Description for pulmonary embolism: A person presents with shortness of breath and hemoptysis. […] Treatment is carried out for 12 hours/day for three days.
Excerpt for viral pneumonia: A person status post lung transplant is admitted to the hospital with viral pneumonia.

`N[C@@H](CCC(=O)N[C@@H](CSCO)C(=O)NCC(=O)O)C(=O)O` [S-hydroxymethylglutathione]: at mouse GS-FDH, the “specific activity for oxidation, as share of the GSNO reducing activity” value is on record as “about 6%”.
With `COc1c(C)c2c(c(O)c1C/C=C(\C)CCC(=O)O)C(=O)OC2` [mycophenolic acid], the “outcome of stent deployment” value in the data set with restenosis is reported as “successful results”. The impotence result in the data set with impotence (topical 5% paste added to Viagra) is reported as “good results”.
On to `NC(=O)c1coc([C@@H]2O[C@H](CO)[C@@H](O)[C@H]2O)c1` [furanfurin, 5-β-D-ribofuranosylfuran-3-carboxamide], for which the “activity as antitumor agent” value in the data set with tumors is “inactive”.
Turning to nitroprusside, in the data set on malignant hypertension (nitroprusside alone, 1.0 μg/kg/min IV infusion for 10 minutes, from 240), the “Blood pressure, systolic” value came out at 200.
Regarding `NC(=O)c1ncn([C@@H]2O[C@H](CO)[C@@H](O)[C@H]2O)n1` [ribavirin], in the data set on intractable angina, the angina entry is recorded as “angina had improved”. The “symptoms (shortness of breath, hemoptysis)” value with pulmonary embolism is given as “improvement in symptoms”. The psoriatic lesion entry in the data set with chronic psoriasis is reported as “psoriatic lesion had resolved”. Also, in the data set on ringworm, the skin lesion result was “skin lesion resolve”. In addition, the “activity as antitumor agent” value with tumors is “inactive”.
Take `CNC(=N)NCCC[C@H](N)C(=O)O` [N^G-methyl-L-arginine]: in data set [1], the “nitric oxide synthase activity left” value is on record as 20%. The values for the cell death result in data set [1] (liver injured by cytokine administration) and in data set [2] were “found to die” and “died to a lesser extent”, respectively.
For `N[C@H](CCC(=O)N[C@H](CS)C(=O)NCC(=O)O)C(=O)O` [D-glutathione], the “symptoms (difficulty breathing, fever)” value in the data set on cystic fibrosis was “symptoms resolve”. This molecule also gave a PO2 in the data set on ARDS of 80 mm/Hg. The “symptoms (chest pain)” value is listed as “relief of their symptoms” in the data set with unstable angina and “total relief of symptoms” in the data set with angina. In the data set on blood pressure, the blood pressure is 140/80. Also, the liver function entry with liver function was “gradual normalization of liver function”. Besides, the adenopathy result with Hodgkins disease is given as “resolution of adenopathy”. The “course after stent placement” value in data set [3] is reported as “does well”. For the same molecule, the clinical course result in the data set with severe heart failure is “stabilized their deteriorating course”. Moreover, in the data set with malignant hypertension (600 mg TID coadministered with nitroprusside, from 200), the “Blood pressure, systolic” value came to 160. Moreover, the breathing entry in the data set with wheezing is “breathing improves”. The response to acetylcholine result with atherosclerosis is “improved response to acetylcholine”. The “swelling and LSTs” value in [4] was “swelling and elevated LSTs are reduced”. Further, in the data set on viral pneumonia, the “symptoms of cough and shortness of breath” value was “resolution of symptoms of cough and shortness of breath”. In addition, in the data set on pinworm, the signs and symptoms entry was “signs and symptom resolve”. Besides, in the data set on squamous cell cancer, the “tumor stage on restaging” value stood at 3A. In data set [5], the “symptoms (urinary frequency and hesitancy)” value is “symptoms gradually resolve”.
In the case of `N[C@@H](CCC(=O)N[C@@H](CSN=O)C(=O)NCC(=O)O)C(=O)O` [GSNO, S-nitrosoglutathione], the GSNO metabolizing activity in data set [6] (+NADH) came to 0.0%; in data set [6] (+NADPH + GSH + ASA), 0.7%; in data set [6] (Buffer only), 6.2%; in the data set with human HeLa cells (+NADH), 84.2%; with human HeLa cells (+NADPH + GSH + ASA), 35.4%; with human HeLa cells (Buffer only), 29.9%. Also, the GSNO metabolizing activity in data set [7] (+NADH) came to 72.3%; in [7] (+NADPH + GSH + ASA) it was 43.9%; in data set [7] (Buffer only) it was 14.7%; in [8] (+NADH), 90.8%; in data set [8] (+NADPH + GSH + ASA), 22.6%; in data set [8] (Buffer only), 18.8%. Besides, the Growth of cells entry with sfa1 mutant cells (sfa1 mutant cells (G418^r and hygromicin^r clones)) is recorded as “markedly inhibited”; in the data set with wild-type Y190 cells it was “little effect”. Besides, in the data set with cystic fibrosis, the “symptoms (difficulty breathing, fever)” value was “symptoms resolve”.
In the case of `CCCc1nn(C)c2c(=O)[nH]c(-c3cc(S(=O)(=O)N4CCN(C)CC4)ccc3OCC)nc12` [Viagra], the impotence result in the data set on impotence (Viagra alone) is “no improvement”.
With `OO` [Compound H2O2, H2O2], the “sensitivity to the toxic effects, mutant versus wild-type Y190 cells” value with sfa1 mutant cells (sfa1 mutant cells) is “no more sensitive”.
